Laboratory results: the supplement of paper PMC10307832

Experiments:
Experiment in all cases: relative viability (nuclei count vs DMSO), 5 days (fraction); higher = more cells survive
Everolimus + Crizotinib = compound: CO[C@H]1C[C@@H]2CC[C@@H](C)[C@@](O)(O2)C(=O)C(=O)N2CCCC[C@H]2C(=O)O[C@H]([C@H](C)C[C@@H]2CC[C@@H](OCCO)[C@H](OC)C2)CC(=O)[C@H](C)/C=C(\C)[C@@H](O)[C@@H](OC)C(=O)[C@H](C)C[C@H](C)/C=C/C=C/C=C/1C [Everolimus] + C[C@@H](Oc1cc(-c2cnn(C3CCNCC3)c2)cnc1N)c1c(Cl)ccc(F)c1Cl [Crizotinib] (partner 1 µM)
Method in brief: (§1)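 Lung cancer cell lines in 1536-well plates got either a single drug or a fixed anchor-drug dose together with five library-drug doses (not always all listed) in √10 steps, by pin tool, on the day after seeding. Nuclei were counted after 5 days, and relative viability is the treated-to-vehicle ratio of nuclei counts. Values are medians of duplicate plates.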

Everolimus + Phenformin = compound: CO[C@H]1C[C@@H]2CC[C@@H](C)[C@@](O)(O2)C(=O)C(=O)N2CCCC[C@H]2C(=O)O[C@H]([C@H](C)C[C@@H]2CC[C@@H](OCCO)[C@H](OC)C2)CC(=O)[C@H](C)/C=C(\C)[C@@H](O)[C@@H](OC)C(=O)[C@H](C)C[C@H](C)/C=C/C=C/C=C/1C [Everolimus] + N=C(N)NC(=N)NCCc1ccccc1 [Phenformin] (partner 250 µM)
Method in brief: as §1

Everolimus + Navitoclax = compound: CO[C@H]1C[C@@H]2CC[C@@H](C)[C@@](O)(O2)C(=O)C(=O)N2CCCC[C@H]2C(=O)O[C@H]([C@H](C)C[C@@H]2CC[C@@H](OCCO)[C@H](OC)C2)CC(=O)[C@H](C)/C=C(\C)[C@@H](O)[C@@H](OC)C(=O)[C@H](C)C[C@H](C)/C=C/C=C/C=C/1C [Everolimus] + CC1(C)CCC(c2ccc(Cl)cc2)=C(CN2CCN(c3ccc(C(=O)NS(=O)(=O)c4ccc(N[C@H](CCN5CCOCC5)CSc5ccccc5)c(S(=O)(=O)C(F)(F)F)c4)cc3)CC2)C1 [Navitoclax] (partner 0.5 µM)
Method in brief: as §1

Everolimus + Decitabine = compound: CO[C@H]1C[C@@H]2CC[C@@H](C)[C@@](O)(O2)C(=O)C(=O)N2CCCC[C@H]2C(=O)O[C@H]([C@H](C)C[C@@H]2CC[C@@H](OCCO)[C@H](OC)C2)CC(=O)[C@H](C)/C=C(\C)[C@@H](O)[C@@H](OC)C(=O)[C@H](C)C[C@H](C)/C=C/C=C/C=C/1C [Everolimus] + Nc1ncn([C@H]2C[C@H](O)[C@@H](CO)O2)c(=O)n1 [Decitabine] (partner 2 µM)
Method in brief: as §1

Cell Line	relative viability (Everolimus + Crizotinib; first compound 0.01 µM)	relative viability (Everolimus + Crizotinib; first compound 0.03162 µM)	relative viability (Everolimus + Crizotinib; first compound 0.1 µM)	relative viability (Everolimus + Crizotinib; first compound 0.3162 µM)	relative viability (Everolimus + Crizotinib; first compound 1 µM)	relative viability (Everolimus + Phenformin; first compound 0.01 µM)	relative viability (Everolimus + Phenformin; first compound 0.03162 µM)	relative viability (Everolimus + Phenformin; first compound 0.1 µM)	relative viability (Everolimus + Phenformin; first compound 0.3162 µM)	relative viability (Everolimus + Phenformin; first compound 1 µM)	relative viability (Everolimus + Navitoclax; first compound 0.01 µM)	relative viability (Everolimus + Navitoclax; first compound 0.03162 µM)	relative viability (Everolimus + Navitoclax; first compound 0.1 µM)	relative viability (Everolimus + Navitoclax; first compound 0.3162 µM)	relative viability (Everolimus + Navitoclax; first compound 1 µM)	relative viability (Everolimus + Decitabine; first compound 0.01 µM)	relative viability (Everolimus + Decitabine; first compound 0.03162 µM)	relative viability (Everolimus + Decitabine; first compound 0.1 µM)	relative viability (Everolimus + Decitabine; first compound 0.3162 µM)	relative viability (Everolimus + Decitabine; first compound 1 µM)
201T	0.945	0.984	0.926	0.962	0.977	0.499	0.443	0.406	0.425	0.484	1	1.09	1.05	1.07	1.03	0.758	0.757	0.635	0.705	0.716
A549	0.416	0.415	0.306	0.401	0.369	0.164	0.122	0.154	0.0954	0.157	0.64	0.455	0.452	0.474	0.458	0.193	0.194	0.179	0.174	0.193
A-427	0.776	0.768	0.745	0.704	0.675	0.281	0.357	0.278	0.254	0.289	0.622	0.404	0.409	0.388	0.461	0.436	0.509	0.45	0.486	0.561
ABC-1	0.74	0.799	0.709	0.584	0.761	0.223	0.249	0.21	0.203	0.264	–	–	–	–	–	0.637	–	0.603	–	0.883
BEN	0.573	0.391	0.311	0.387	0.328	0.289	0.249	0.273	0.24	0.26	0.0532	0.0623	0.063	0.0598	0.0645	0.574	0.412	0.546	0.442	0.583
CAL-12T	0.432	0.569	0.233	0.401	0.265	0.472	0.549	0.356	0.503	0.482	0.438	0.452	0.35	0.423	0.498	–	–	–	–	–
COR-L23	0.515	0.597	0.623	0.666	0.635	0.368	0.413	0.395	0.421	0.424	0.706	0.597	0.662	0.636	0.765	0.312	0.308	0.325	0.369	0.323
COR-L 105	0.549	0.642	0.469	0.544	0.49	0.356	0.387	0.388	0.435	0.361	0.574	0.636	0.616	0.652	0.57	0.516	0.529	0.522	0.502	0.548
Calu-6	0.808	0.692	0.642	0.674	0.748	–	–	–	–	–	0.774	0.714	0.779	0.7	0.532	–	–	–	–	–
ChaGo-K-1	1.04	1.2	1.07	1.02	1.14	0.532	0.467	0.394	0.536	0.568	1.01	0.558	0.951	0.837	1.01	0.5	0.478	0.461	0.419	0.458
EBC-1	0.188	0.17	0.152	0.206	0.185	–	–	–	–	–	0.211	0.217	0.153	0.22	0.222	–	–	–	–	–
EKVX	0.718	0.656	0.684	0.721	0.75	0.242	0.22	0.22	0.222	0.25	0.542	0.75	0.505	0.514	0.654	–	0.245	0.226	0.226	0.371
EMC-BAC-2	0.562	0.546	0.485	0.504	0.535	0.377	0.364	0.322	0.383	0.422	0.9	0.806	0.619	0.736	0.61	0.743	0.81	0.659	–	0.755
EPLC-272H	0.68	0.573	0.542	0.512	0.601	0.281	0.259	0.236	0.245	0.268	0.996	0.697	0.598	0.602	0.673	0.312	0.291	0.259	0.306	0.327
H3255	0.575	0.505	0.498	0.555	0.527	0.332	0.271	0.354	0.363	0.288	0.252	0.23	0.188	0.167	0.148	0.409	0.433	0.322	0.371	0.315
HARA	1	1.12	0.928	0.986	0.952	0.412	0.489	–	0.419	0.466	1.14	1.2	1.12	1.11	0.898	0.451	0.426	0.426	0.572	0.474
HCC-15	0.931	0.887	0.791	0.829	0.75	0.465	0.474	0.459	0.497	0.471	0.691	0.629	0.512	0.637	0.512	0.597	0.463	0.511	0.604	0.482

Cell Line	relative viability (Everolimus + Crizotinib; first compound 0.01 µM)	relative viability (Everolimus + Crizotinib; first compound 0.03162 µM)	relative viability (Everolimus + Crizotinib; first compound 0.1 µM)	relative viability (Everolimus + Crizotinib; first compound 0.3162 µM)	relative viability (Everolimus + Crizotinib; first compound 1 µM)	relative viability (Everolimus + Phenformin; first compound 0.01 µM)	relative viability (Everolimus + Phenformin; first compound 0.03162 µM)	relative viability (Everolimus + Phenformin; first compound 0.1 µM)	relative viability (Everolimus + Phenformin; first compound 0.3162 µM)	relative viability (Everolimus + Phenformin; first compound 1 µM)	relative viability (Everolimus + Navitoclax; first compound 0.01 µM)	relative viability (Everolimus + Navitoclax; first compound 0.03162 µM)	relative viability (Everolimus + Navitoclax; first compound 0.1 µM)	relative viability (Everolimus + Navitoclax; first compound 0.3162 µM)	relative viability (Everolimus + Navitoclax; first compound 1 µM)	relative viability (Everolimus + Decitabine; first compound 0.01 µM)	relative viability (Everolimus + Decitabine; first compound 0.03162 µM)	relative viability (Everolimus + Decitabine; first compound 0.1 µM)	relative viability (Everolimus + Decitabine; first compound 0.3162 µM)	relative viability (Everolimus + Decitabine; first compound 1 µM)
HCC-44	0.912	0.935	0.774	0.86	0.677	0.195	0.125	0.127	0.178	0.168	0.941	0.88	0.819	0.904	0.903	0.933	0.975	0.937	0.954	0.896
HCC-78	0.315	0.261	0.265	0.259	0.298	0.504	0.462	0.451	0.564	0.626	0.853	0.421	0.424	0.589	0.455	0.593	0.605	0.636	0.643	0.603
IA-LM	0.418	0.424	0.256	0.478	0.441	–	–	–	–	–	0.314	0.317	0.395	0.389	0.302	–	–	–	–	–
LCLC-103H	1.1	0.943	1.03	0.841	0.818	0.309	0.274	0.294	0.309	0.331	–	–	–	–	–	0.682	0.682	0.633	0.58	0.653
NCI-H358	0.528	0.592	0.509	0.542	0.429	0.208	0.25	0.227	0.234	0.298	–	–	–	–	–	0.204	0.195	0.218	0.19	0.205
NCI-H522	–	–	–	–	–	0.588	0.527	0.549	0.51	0.503	–	–	–	–	–	0.594	0.677	0.517	0.684	0.537
NCI-H650	0.672	–	0.582	0.588	0.428	0.423	–	0.431	0.364	0.294	–	–	–	–	–	0.316	0.287	0.335	0.281	0.318
NCI-H661	1.1	1.07	0.977	0.837	0.814	0.253	0.259	0.258	0.271	0.281	–	–	–	–	–	0.429	0.429	0.428	0.435	0.397
NCI-H1299	0.953	0.967	0.968	0.936	1.09	–	–	–	–	–	1.03	1.03	1.04	1.08	1.07	–	–	–	–	–
NCI-H1395	–	–	–	–	–	0.386	0.398	0.425	0.401	0.371	1.06	0.886	0.857	0.83	0.763	0.59	0.6	0.563	0.574	0.6
NCI-H1563	0.673	0.654	0.682	0.684	0.692	0.658	0.661	0.657	0.657	0.592	–	–	–	–	–	–	–	–	–	–
NCI-H1648	–	–	–	–	–	–	–	–	–	–	–	–	–	–	–	0.484	0.423	0.383	0.405	0.399
NCI-H1703	0.344	0.316	0.276	0.395	0.454	–	–	–	–	–	0.443	0.453	0.553	0.457	0.671	–	–	–	–	–
NCI-H1793	–	–	–	–	–	0.294	0.242	0.329	0.313	0.29	0.285	0.165	0.247	0.258	0.184	0.283	0.262	0.339	0.344	0.263
NCI-H2228	0.331	0.254	0.281	0.303	0.328	0.214	0.194	0.172	0.291	0.187	0.685	0.527	0.508	0.421	0.539	–	–	–	–	–
NCI-H2342	–	–	–	–	–	0.436	0.34	0.352	0.411	0.49	–	–	–	–	–	0.652	0.534	0.474	0.512	0.537
SW 900	–	–	–	–	–	0.43	0.492	0.371	0.324	0.45	–	–	–	–	–	0.434	0.404	0.4	0.406	0.439
